Assay [1] has as its target T1, C656S mutant glucocorticoid receptor (Rattus norvegicus, UniProt P06536, C656S/D98G).
T1 construct: Thus the full length receptor was removed from the VARO vector with BamHI and inserted into the SVL vector; expressed in transfected cells; host or cells: COS-7 (cytosol)
T1 sequence (P06536 1-795 D98G/C656S): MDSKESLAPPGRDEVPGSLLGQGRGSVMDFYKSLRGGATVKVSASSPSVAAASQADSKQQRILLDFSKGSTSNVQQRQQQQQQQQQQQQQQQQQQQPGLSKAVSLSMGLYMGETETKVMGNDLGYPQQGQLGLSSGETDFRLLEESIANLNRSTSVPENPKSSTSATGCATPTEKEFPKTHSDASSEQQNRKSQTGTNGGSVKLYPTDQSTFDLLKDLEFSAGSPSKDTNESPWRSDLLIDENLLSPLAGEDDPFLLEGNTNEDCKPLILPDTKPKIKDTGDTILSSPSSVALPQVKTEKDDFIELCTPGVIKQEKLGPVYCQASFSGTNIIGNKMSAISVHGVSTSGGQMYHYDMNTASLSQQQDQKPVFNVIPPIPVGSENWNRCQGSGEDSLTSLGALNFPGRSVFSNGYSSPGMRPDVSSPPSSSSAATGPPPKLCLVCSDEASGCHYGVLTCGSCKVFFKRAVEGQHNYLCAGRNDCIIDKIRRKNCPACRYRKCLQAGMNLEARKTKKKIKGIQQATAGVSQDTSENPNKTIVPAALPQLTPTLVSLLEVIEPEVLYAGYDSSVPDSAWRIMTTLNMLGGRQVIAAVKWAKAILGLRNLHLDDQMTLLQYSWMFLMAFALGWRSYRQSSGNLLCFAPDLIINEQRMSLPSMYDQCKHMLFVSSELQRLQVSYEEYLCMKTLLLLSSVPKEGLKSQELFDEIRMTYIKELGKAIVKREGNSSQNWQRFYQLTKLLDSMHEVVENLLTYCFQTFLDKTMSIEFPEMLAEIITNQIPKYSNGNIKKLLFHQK
In words: Competition binding assay with [3H]Dex, COS-7 cytosol, C656S receptor. The following applies: for reduction in relative affinity on replacement of Cys-656 with serine: C656S vs wild type, 2.5 hr incubation. How it is done:
(§1) Monolayer cultures of COS-7 cells were grown in DMEM (Gibco) supplemented with 5% fetal bovine serum (FBS) (Biofluids) at 37° C. in a 5% CO2 incubator. Standard calcium phosphate transfection methods were used to introduce the wild type and mutant receptor expression vectors (pSVL) into COS-7 cells (100 mm plates [Costar] at a cell density of about 10^6 /plate were each treated with 10 μg of plasmid DNA). After ~16 hrs of incubation at 37° C. in a 5% CO2 incubator, the excess calcium phosphate and precipitate were removed by washing with phosphate buffered saline (PBS). The cells were incubated at 37° C. for another ~48 hr in DMEM/ 5% FBS and harvested by trypsinization followed by centrifugation (for 10 min at 1570 ×g) and washing 3 times with PBS. The washed cells were stored at -80° C. until used.
(§2) Briefly, 30% cytosol solutions containing ~21 mM Na2 MoO4 were prepared with three parts COS-7 cell cytosol, 2 parts pH 9.5 TAPS buffer, and 5 parts pH 8.8 TAPS buffer. The total EtOH in each experiment was kept constant and at a level of ≤1%. […] After incubation for 2.5 hr, the [^3 H]Dex-Mes-labeled solutions were quick-frozen at -78° C. for subsequent SDS-polyacrylamide gel electrophoresis analysis. The specifically bound [^3 H]Dex was determined by first adding a 10% dextran-coated charcoal solution (added volume =20% of reaction solution volume) to remove free steroid and then subtracting the nonspecific binding seen in the presence of excess nonradioactive Dex.
(§3) The average specific binding was determined after 2.5 or 24 hr of incubation as described above, expressed as percentage of the non-competed control and plotted versus the log10 of the concentration of the competing steroid.
(§4) The initial data were collected from 2.5 hr binding assays because of concerns about the stability of the receptors over longer times.

The target of assay [2] is T2, C661S mutant glucocorticoid receptor (Rattus norvegicus, UniProt P06536, C661S/D98G).
T2 construct: Thus the full length receptor was removed from the VARO vector with BamHI and inserted into the SVL vector; expressed in transfected cells; host or cells: COS-7 (cytosol)
T2 sequence (P06536 1-795 D98G/C661S): T1 sequence (P06536 1-795 D98G/C656S) with S656C, C661S
In words: Competition binding assay with [3H]Dex, COS-7 cytosol, C661S receptor. The settings on record: for decrease in relative affinity on mutation of Cys-661: C661S vs wild type, 2.5 hr incubation. How it is done:
as §1, §2, §3, §4

The structures appear in SMILES notation. Substitutions are numbered along the chain they refer to.

Turning to `CC#C[C@]1(O)CC[C@H]2[C@@H]3CCC4=CC(=O)CCC4=C3[C@@H](c3ccc(N(C)C)cc3)C[C@@]21C` [RU486], the results for the “Relative Ka of Steroid Binding to Receptor” value (“Relative Ka” for short) in assay [1] and in assay [2] were 3.4 and 3.84 ± 1.36, respectively. In assay [2], the “effect of mutation of Cys-661 on binding” value is given as “little effect”.
With `C[C@]12CCC(=O)C=C1CC[C@@H]1[C@@H]2[C@@H](O)C[C@]2(C=O)[C@@H](C(=O)CO)CC[C@@H]12` [Aldosterone, aldosterone], in assay [1], the “Relative Ka” value is reported as 0.068 and the “reduction in relative affinity on replacement of Cys-656 with serine” value was not above 3 fold. In addition, in assay [2], the “Relative Ka” value came to 0.016 ± 0.007 and the “decrease in relative affinity on mutation of Cys-661” value was “approximately 10 fold”.
Taken in the same sequence, the figures for `C[C@]12CC[C@@H]3c4ccc(O)cc4CC[C@H]3[C@@H]1CC[C@@H]2O` [17β-Estradiol, 17β-estradiol] were 0.0015, not below 10 fold, 0.0017 ± 0.0006 and “approximately 10 fold”.

These data come from US5215916A, “Super glucocorticoid receptors: receptors with increased affinity and specificity for glucocorticoid steriods” (priority 1991, dated 1993).
